In PMC4306947, “Synthesis and Antiproliferative Activity of Thiazolyl-bis-pyrrolo[2,3-b]pyridines and Indolyl-thiazolyl-pyrrolo[2,3-c]pyridines, Nortopsentin Analogues” (Marine Drugs, 2015):

Columns and labels:
[1] = test system: MDA-MB-435; assay: NCI-60 in vitro tumor cell screen, MDA-MB-435; type: cell-based; details: Homo sapiens; MDA-MB-435, Melanoma
Procedure: (§1) All the synthesized thiazoles 1a–l, 2a–j, 3a–f and 4a–f were evaluated by the National Cancer Institute (Bethesda MD) for cytotoxicity against the NCI-60 cell line panel using standard protocols. Initially, all derivatives were tested at a single dose (10^−5 M) on the full panel of approximately 60 human tumor cell lines derived from 9 human cancer cell types, that have been grouped in disease sub-panels including leukemia, non-small-cell lung, colon, central nervous system (CNS), melanoma, ovarian, renal, prostate and breast cancers (data not shown). Compounds 1k and 4c were further selected for full evaluation at five concentration levels (10^−4–10^−8 M).
(§2) The antitumor activity of compounds 1k and 4c was given by three parameters for each cell line: GI50 (GI50 is the molar concentration of the compound that inhibits 50% net cell growth), TGI (TGI is the molar concentration of the compound leading to total inhibition of net cell growth), and LC50 (LC50 is the molar concentration of the compound that induces 50% net cell death). The average values of mean graph midpoint (MG_MID) were calculated for each of these parameters.

[2] = test system: K-562; assay: NCI-60 in vitro tumor cell screen, K-562; type: cell-based; details: Homo sapiens, K562; K-562, Leukemia
Procedure: as §1, §2

[3] = test system: MCF7; assay: NCI-60 in vitro tumor cell screen, MCF7; type: cell-based; details: Homo sapiens; MCF7, Breast Cancer
Procedure: as §1, §2

[4] = test system: TK-10; assay: NCI-60 in vitro tumor cell screen, TK-10; type: cell-based; details: Homo sapiens; TK-10, Renal Cancer
Procedure: as §1, §2

[5] = test system: MDA-MB-231/ATCC; assay: NCI-60 in vitro tumor cell screen, MDA-MB-231/ATCC; type: cell-based; details: Homo sapiens, Breast Cancer
Procedure: as §1, §2

[6] = test system: MALME-3M; assay: NCI-60 in vitro tumor cell screen, MALME-3M; type: cell-based; details: Homo sapiens, Melanoma
Procedure: as §1, §2

[7] = test system: OVCAR-5; assay: NCI-60 in vitro tumor cell screen, OVCAR-5; type: cell-based; details: Homo sapiens; OVCAR-5, Ovarian Cancer
Procedure: as §1, §2

[8] = test system: HCT-116 cells; assay: Phosphatidylserine exposure, Annexin V-FITC/PI flow cytometry; type: cell-based, human; details: 24 h
Procedure: The apoptosis-induced PS externalization to the cell surface was measured by flow cytometry by double staining with Annexin V-Fluorescein isothiocyanate (Annexin V-FITC)/propidium iodide (PI). Annexin V binding to phosphatidylserine is used to identify the earliest stage of apoptosis. […] After 24 h treatment, HCT-116 cells were harvested by trypsinization and adjusted at 1.0 × 10^6 cells/mL with combining buffer according to the manufacturer instructions (eBioscience, San Diego, CA, USA). One hundred μL of cell suspensions were added to a new tube, and incubated with Annexin V-FITC and PI solution at room temperature in the dark for 15 min. Then samples of at least 1.0 × 10^4 cells were subjected to FACS analysis using appropriate 2-bidimensional gating method.

[9] = test system: HCT-116 cells; assay: Cell cycle analysis by flow cytometry (propidium iodide); type: cell-based, human; details: 24 h, concentrations above and below GI50
Procedure: Cell cycle stage was analyzed by flow cytometry. HCT-116 cells (5.0 × 10^4 cells/cm^2) were seeded in triplicate in 24-wells culture plates. After an overnight incubation, the cells were washed with fresh medium and incubated with compounds 1k and 4c in RPMI for 24 h. Then cells were harvested by trypsinization. Aliquots of 1 × 10^6 cells were washed with PBS and incubated in the dark in a PBS solution containing 20 μg/mL propidium iodide (PI) and 200 μg/mL RNase, for 30 min, at room temperature. Then samples of at least 1.0 × 10^4 cells were subjected to fluorescence-activated cell sorting (FACS) analysis by Epics XL™ flow cytometer using Expo32 software (Beckman Coulter, Fullerton, CA, USA).

[10] = test system: SK-OV-3; assay: NCI-60 in vitro tumor cell screen, SK-OV-3; type: cell-based; details: Homo sapiens; SK-OV-3, Ovarian Cancer
Procedure: as §1, §2

[11] = test system: NCI-H522; assay: NCI-60 in vitro tumor cell screen, NCI-H522; type: cell-based; details: Homo sapiens; NCI-H522, Non-Small Cell Lung Cancer
Procedure: as §1, §2

[12] = test system: HCT-116 cells; assay: Acidic vesicular organelles by acridine orange staining (FACS); type: cell-based, human; details: 24 h
Procedure: AO is a fluorescent molecule used either to identify apoptotic cell death or autophagy. It can interact with DNA emitting green fluorescence or accumulate in acidic organelles where it is protonated forming aggregates that emit bright red fluorescence. Briefly, cells were stained with a AO solution (5 μg/mL) for 15 min. Then they were washed, re-suspended in PBS and subjected to FACS analysis. The green (510–530 nm, FL-1) and red (650 nm, FL-3) fluorescence of AO with blue (488 nm) excitation was determined over 10,000 events.

[13] = test system: COLO-205; assay: NCI-60 in vitro tumor cell screen, COLO-205; type: cell-based; details: Homo sapiens; COLO-205, Colon Cancer
Procedure: as §1, §2

[14] = test system: SR; assay: NCI-60 in vitro tumor cell screen, SR; type: cell-based; details: Homo sapiens, Leukemia
Procedure: as §1, §2

[15] = test system: SN12C; assay: NCI-60 in vitro tumor cell screen, SN12C; type: cell-based; details: Homo sapiens, Renal Cancer
Procedure: as §1, §2

[16] = test system: UO-31; assay: NCI-60 in vitro tumor cell screen, UO-31; type: cell-based; details: Homo sapiens; UO-31, Renal Cancer
Procedure: as §1, §2

[17] = test system: UACC-257; assay: NCI-60 in vitro tumor cell screen, UACC-257; type: cell-based; details: Homo sapiens; UACC-257, Melanoma
Procedure: as §1, §2

[18] = test system: SK-MEL-28; assay: NCI-60 in vitro tumor cell screen, SK-MEL-28; type: cell-based; details: Homo sapiens; SK-MEL-28, Melanoma
Procedure: as §1, §2

| Structure (SMILES) | GI50 [1] [µM] | GI50 [2] [µM] | GI50 [3] [µM] | GI50 [4] [µM] | GI50 [5] [µM] | GI50 [6] [µM] | GI50 [7] [µM] | apoptosis (Annexin V-FITC/PI staining) [8] | alteration of cell cycle distribution [9] | GI50 [10] [µM] | GI50 [11] [µM] | increase of the bright red to green fluorescence intensity ratio of acridine orange ([12]; concentration GI30, vs control) [fold] | percent of cells with AVO with respect to control ([12]; highest drug concentration) | GI50 [13] [µM] | GI50 [14] [µM] | GI50 [15] [µM] | GI50 [16] [µM] | GI50 [17] [µM] | GI50 [18] [µM] |
| --- | --- | --- | --- | --- | --- | --- | --- | --- | --- | --- | --- | --- | --- | --- | --- | --- | --- | --- | --- |
| Cn1cc(-c2csc(-c3c[nH]c4ncccc34)n2)c2cc(Br)cnc21 [Compound 1k, 5-Bromo-1-methyl-3-[2-(1H-pyrrolo[2,3-b]pyridin-3-yl)-1,3-thiazol-4-yl]-1H-pyrrolo[2,3-b]pyridine] | 3.17 | 8.76 | 6.77 | 3.77 | 3.02 | 3.01 | > 100 | percentage of cells in late apoptosis increased | dose-dependent accumulation of cells in G2/M phase | 3.25 | 4.86 | – | – | – | – | – | – | – | – |
| Clc1nccc2c(-c3csc(-c4c[nH]c5ccc(Br)cc45)n3)c[nH]c12 [Compound 4c, 3-[2-(5-Bromo-1H-indol-3-yl)-1,3-thiazol-4-yl]-7-chloro-1H-pyrrolo[2,3-c]pyridine] | 3.43 | 2.73 | 2.2 | 4.16 | 1.68 | – | 3.14 | evident only at high concentrations (GI70) | dose-dependent accumulation of cells in G1 phase | 2.78 | 2.28 | 10 | did not significantly modify | 1.8 | 1.27 | 3.35 | 0.93 | 2.68 | 1.85 |
